{
  "source": "patent US20100217003A1",
  "about": "“1,2,3,4-TETRAHYDROISOQUINOLINE DERIVATIVES HAVING EFFECTS OF PREVENTING AND TREATING DEGENERATIVE AND INFLAMMATORY DISEASES” (priority 2006, published 2010)",
  "key": {"NF-kB p65": {"tested_on": "NF-kB p65", "assay": "NF-kB p65 shift to nucleus in LPS-treated cells (Western blot)", "type": "cell-based, mouse", "details": "10 (unit as image)", "procedure": "Assay for NF-kB p65 Shift to Nucleus\nThe cells were washed with cold phosphate buffered saline (PBS) and gently suspended in 400 ? buffer solution containing 10 mM HEPES (pH 7.9), 10 mM KCl, 0.1 mM EDTA, 0.1 mM EGTA, 1 mM DTT and 0.5 mM PMSF. The cell suspension was placed on ice for 15 minutes, and reacted with 25 ? NP-40 (0.5%) for 10 seconds. Cen-trifugation for 30 seconds yielded nuclear pellets, which were then resuspended in 50 ? of cold PBS containing 20 mM HEPES (pH 7.9), 400 mM NaCl, and 1 mM each of DTT, EDTA, EGTA and PMSF. The suspension was vortexted for 15 minutes. The nuclear extract was centrifuged at 11,000×g for 15 minutes to get supernatant solution, whose protein content was measured. Equal amounts of the cell extract (5 ? ) were subjected to electrophoresis in a 10% SDS-polyacrylamide gel and then transferred onto a polyvinylidene difluoride-nitrocellulose membrane. The membrane was blocked with TBST containing 8% skim milk at RT for one hour, incubated with primary antibody, anti-NF-kB p65 antibody (1:500 dilution), at 4° C. overnight, and further incubated with secondary antibody conjugated with horseradish peroxidase for one more hour. Protein bands were detected by a chemiluminescence detection method according to the manufacturer's indication.\nA transcription factor, NF-kB, shifts into a nucleus to regulate expression of several inflammatory genes. […]"}, "[1]": {"assay": "Drug stability against liver microsomal enzymes", "type": "in vitro ADME, rat", "procedure": "Evaluation for Drug Stability\n1 mM EHMTIQ (11a) was added to 1 mg samples of white rat liver microsomes, and the samples were incubated at 37° C. for 0, 30, 120 and 240 minutes in the presence of a NADPH-regeneration system (2.6 mM β-NADP^+, 10 mM glucose-6-phosphate, 4 UI/ml glucose-6-phosphate dehydrogenase and 10 mM MgCl2). Perchloric acid was added to the sample to make a final concentration of 500 mM and then the reaction was stopped. The reaction mixture was centrifuged at 16,000×g for 20 minutes. The supernatant solution (120 l) was purified using a Waters HPLC system [717 plus autosampler, 515 pump, and Symmetry C18 column (4.6 mm×150 mm, […])] using a 5-30% linear gradient of acetonitrile as mobile phase. EHMTIQ (11a) was detected at 254 nm using a Waters 486 UV detector and analyzed using EMPOWER software (Millipore Corporation, Milford, Mass., USA).\nSince almost all micromolecules are degraded by enzymes in the liver, the stability of a medicine to these enzymes is very important. To evaluate bioavailability of EHMTIQ (11a) in vivo, the degradation rate of EHMTIQ (11a) by liver microsomal enzyme was measured, and neutralized to remaining EHMTIQ after exposure to liver microsomes."}, "mouse liver cell": {"tested_on": "mouse liver cell", "assay": "Toxicity to mouse liver cell", "type": "in vivo", "details": "FIG. 16"}},
  "data": [
    {"smiles": "CCC(=O)N1CCc2cc(OC)c(O)cc2C1", "note": "[EHMTIQ (11a), 2-ethylcarbonyl-7-hydroxy-6-methoxy-1,2,3,4-tetrahydroisoquinoline]", "values": [
      {"measurement": "NF-kB p65 in nuclear fraction", "setting": "NF-kB p65", "value": "completely inhibited"},
      {"measurement": "EHMTIQ degraded", "setting": "[1]; 2-hour exposure to liver microsomes", "value": "about 12.52%"},
      {"measurement": "EHMTIQ remained", "setting": "[1]; 30-minute exposure to liver microsomes", "value": "~95", "unit": "%"},
      {"measurement": "degeneration rate of EHMTIQ", "setting": "[1]; liver microsomes, NADPH-regeneration system", "value": "1.115±0.203 nmole (EHMTIQ)/min/mg (liver microsomal protein)"},
      {"measurement": "toxicity to a mouse liver cell", "setting": "mouse liver cell", "value": "non-toxicity"}
    ]}
  ]
}
